US12077503B2, “Substituted cyclic amides and their use as herbicides” (FMC CORPORATION, priority 2015, dated 2024)

Columns and labels:
Experiment in all cases: Test G Post-Emergence Protocol
Assay type in all cases: in vivo
[1] = test system: barnyardgrass (Echinochloa crus-galli); conditions: Echinochloa crus-galli, post-emergence, 312 h; for pest or weed control at 15.625 g/ha: 15.625 g ai/ha, evaluated after 13 days (100=total damage to plant; 0=no damage to plant), read-out: Barnyardgrass damage rating; for pest or weed control at 62.5 g/ha: 62.5 g ai/ha, read-out: Barnyardgrass damage rating (100=total damage to plant; 0=no damage to plant); for pest or weed control at 62.5 g/ha / pest or weed control at 250 g/ha: evaluated after 13 days; for pest or weed control at 250 g/ha: 250 g ai/ha, read-out: damage to plant, Barnyardgrass (100=total damage to plant; 0=no damage to plant)
Procedure, shortened: (§1)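 Values are percent visual injury at 13 days after treatment (0 none, 100 total). Treatment was a post-emergence spray at 15.625, 62.5 or 250 g/ha on 8-day-old pot plants kept at 24/16 °C.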

[2] = test system: redroot pigweed (Amaranthus retroflexus); conditions: Amaranthus retroflexus, post-emergence, 312 h; for pest or weed control at 15.625 g/ha: 15.625 g ai/ha, evaluated after 13 days (100=total damage to plant; 0=no damage to plant), read-out: Pigweed, Redroot damage rating; for pest or weed control at 62.5 g/ha: 62.5 g ai/ha, read-out: Pigweed, Redroot damage rating (100=total damage to plant; 0=no damage to plant); for pest or weed control at 62.5 g/ha / pest or weed control at 250 g/ha: evaluated after 13 days; for pest or weed control at 250 g/ha: 250 g ai/ha, read-out: damage to plant, Pigweed, Redroot (100=total damage to plant; 0=no damage to plant)
Procedure, shortened: as §1

[3] = test system: ivy-leaved morning glory (Ipomoea hederacea); conditions: Ipomoea, post-emergence, 312 h; for pest or weed control at 15.625 g/ha: 15.625 g ai/ha, evaluated after 13 days (100=total damage to plant; 0=no damage to plant), read-out: Morningglory, Ivy-leaved damage rating; for pest or weed control at 62.5 g/ha: 62.5 g ai/ha, read-out: Morningglory, Ivy-leaved damage rating (100=total damage to plant; 0=no damage to plant); for pest or weed control at 62.5 g/ha / pest or weed control at 250 g/ha: evaluated after 13 days; for pest or weed control at 250 g/ha: 250 g ai/ha, read-out: damage to plant, Morningglory, Ivy-leaved (100=total damage to plant; 0=no damage to plant)
Procedure, shortened: as §1

corn (Zea mays) = conditions: Zea mays, post-emergence, 312 h; for plant injury at 15.625 g/ha: 15.625 g ai/ha, evaluated after 13 days (100=total damage to plant; 0=no damage to plant), read-out: Corn damage rating; for plant injury at 62.5 g/ha: 62.5 g ai/ha, read-out: Corn damage rating (100=total damage to plant; 0=no damage to plant); for plant injury at 62.5 g/ha / plant injury at 250 g/ha: evaluated after 13 days; for plant injury at 250 g/ha: 250 g ai/ha, read-out: damage to plant, Corn (100=total damage to plant; 0=no damage to plant)
Procedure, shortened: as §1

[4] = test system: giant foxtail (Setaria faberi); conditions: Setaria faberi, post-emergence, 312 h; for pest or weed control at 15.625 g/ha: 15.625 g ai/ha, evaluated after 13 days (100=total damage to plant; 0=no damage to plant), read-out: Foxtail, Giant damage rating; for pest or weed control at 62.5 g/ha: 62.5 g ai/ha, read-out: Foxtail, Giant damage rating (100=total damage to plant; 0=no damage to plant); for pest or weed control at 62.5 g/ha / pest or weed control at 250 g/ha: evaluated after 13 days; for pest or weed control at 250 g/ha: 250 g ai/ha, read-out: damage to plant, Foxtail, Giant (100=total damage to plant; 0=no damage to plant)
Procedure, shortened: as §1

[5] = test system: velvetleaf (Abutilon theophrasti); conditions: Abutilon theophrasti, post-emergence, 312 h; for pest or weed control at 15.625 g/ha: 15.625 g ai/ha, evaluated after 13 days (100=total damage to plant; 0=no damage to plant), read-out: Velvetleaf damage rating; for pest or weed control at 62.5 g/ha: 62.5 g ai/ha, read-out: Velvetleaf damage rating (100=total damage to plant; 0=no damage to plant); for pest or weed control at 62.5 g/ha / pest or weed control at 250 g/ha: evaluated after 13 days; for pest or weed control at 250 g/ha: 250 g ai/ha, read-out: damage to plant, Velvetleaf (100=total damage to plant; 0=no damage to plant)
Procedure, shortened: as §1

Row | Compound | pest or weed control at 15.625 g/ha [1] | pest or weed control at 62.5 g/ha [1] | pest or weed control at 250 g/ha [1] | pest or weed control at 15.625 g/ha [2] | pest or weed control at 62.5 g/ha [2] | pest or weed control at 250 g/ha [2] | pest or weed control at 15.625 g/ha [3] | pest or weed control at 62.5 g/ha [3] | pest or weed control at 250 g/ha [3] | plant injury at 15.625 g/ha (corn (Zea mays)) | plant injury at 62.5 g/ha (corn (Zea mays)) | plant injury at 250 g/ha (corn (Zea mays)) | pest or weed control at 15.625 g/ha [4] | pest or weed control at 62.5 g/ha [4] | pest or weed control at 250 g/ha [4] | pest or weed control at 15.625 g/ha [5] | pest or weed control at 62.5 g/ha [5] | pest or weed control at 250 g/ha [5]
1 | Cc1ccncc1NC(=O)[C@@H]1C(=O)N(C)C[C@H]1c1ccc(C(F)(F)F)cc1 (racemic) [Compound 1505] | 0% | 0% | 20% | 0% | 0% | 0% | 0% | 0% | 10% | 0% | 10% | 10% | 0% | 0% | 30% | 0% | 0% | 0%
2 | CN1C[C@@H](c2ccc(C(F)(F)F)cc2)[C@H](C(=O)Nc2cc(C(F)(F)F)nn2C)C1=O (racemic) [Compound 1510] | 0% | 0% | 0% | 0% | 0% | 20% | 0% | 0% | 0% | 0% | 0% | 10% | 0% | 0% | 0% | 0% | 0% | 0%
3 | CN1C[C@@H](c2ccc(C(F)(F)F)cc2)[C@H](C(=O)Nc2ccno2)C1=O (racemic) [Compound 1513] | 0% | 0% | 0% | 0% | 0% | 0% | 0% | 0% | 0% | 0% | 0% | 0% | 0% | 0% | 0% | 0% | 0% | 0%
4 | CN1C[C@@H](c2ccc(C(F)(F)F)cc2)[C@H](C(=O)Nc2ncc(Br)cn2)C1=O (racemic) [Compound 1514] | 0% | 0% | 0% | 0% | 0% | 0% | 0% | 0% | 0% | 0% | 10% | 10% | 0% | 0% | 0% | 0% | 0% | 0%
5 | Cc1cscc1NC(=O)[C@@H]1C(=O)N(C)C[C@H]1c1ccc(C(F)(F)F)cc1 (racemic) [Compound 1526] | 0% | 0% | 60% | 0% | 0% | 0% | 0% | 10% | 20% | 0% | 10% | 10% | 0% | 20% | 60% | 0% | 0% | 10%
